Data: ChEMBL document CHEMBL4382208, “Design, synthesis and biological evaluation of novel 2-sulfonylindoles as potential anti-inflammatory therapeutic agents for treatment of acute lung injury” (Eur J Med Chem, 2018)
Activity calls are given as the source filed them. The calls are words filed in the database; no cut-off is given here.

Tests used:
Peritoneal macrophage [1] = assay: Cytotoxicity against mouse primary peritoneal macrophages assessed as reduction in cell viability at 10 uM after 24 hrs by MTT assay; assay type: cell-based
Peritoneal macrophage [2] = assay: Antiinflammatory activity in mouse primary peritoneal macrophages assessed as inhibition of LPS-induced IL-6 production at 10 uM preincubated for 30 mins followed by LPS addition and measured after 24 hrs by ELISA relative to control; assay type: functional
Peritoneal macrophage [3] = assay: Antiinflammatory activity in mouse primary peritoneal macrophages assessed as inhibition of LPS-induced TNF-alpha production at 10 uM preincubated for 30 mins followed by LPS addition and measured after 24 hrs by ELISA relative to control; assay type: functional
Mus musculus [4] = assay: Antiinflammatory activity in C57BL/6 mouse assessed as inhibition of LPS-induced alveolar hemorrhage at 10 to 20 mg/kg, ip pretreated for 30 mins followed by LPS addition measured after 6 hrs by hematoxylin and eosin staining based microscopic analysis; assay type: functional, organism-based
Mus musculus [5] = assay: Antiinflammatory activity in C57BL/6 mouse assessed as inhibition of LPS-induced macrophage filtration in lung by measuring CD68 protein expression at 10 to 20 mg/kg, ip pretreated for 30 mins followed by LPS addition measured after 6 hrs by immunohistochemistry; assay type: functional, organism-based
Peritoneal macrophage [6] = assay: Antiinflammatory activity in mouse primary peritoneal macrophages assessed as inhibition of LPS-induced VCAM-1 mRNA expression at 5 to 10 uM by RT-qPCR analysis; assay type: functional, cell-based
Mus musculus [7] = assay: Antiinflammatory activity in C57BL/6 mouse assessed as inhibition of LPS-induced IL-1beta mRNA expression in lungs at 10 to 20 mg/kg, ip by RT-qPCR analysis; assay type: functional, organism-based
Mus musculus [8] = assay: Antiinflammatory activity in C57BL/6 mouse assessed as inhibition of LPS-induced VCAM-1 mRNA expression in lungs at 10 to 20 mg/kg, ip by RT-qPCR analysis; assay type: functional, organism-based
Mus musculus [9] = assay: Antiinflammatory activity in C57BL/6 mouse assessed as inhibition of LPS-induced inflammatory cell infiltration at 10 to 20 mg/kg, ip pretreated for 30 mins followed by LPS addition measured after 6 hrs by hematoxylin and eosin staining based microscopic analysis; assay type: functional, organism-based
Mus musculus [10] = assay: Antiinflammatory activity in C57BL/6 mouse assessed as inhibition of LPS-induced total number of cells in bronchoalveolar lavage fluid at 10 to 20 mg/kg, ip pretreated for 30 mins followed by LPS addition measured after 6 hrs by Giemsa staining-based assay; assay type: functional, organism-based
Mus musculus [11] = assay: Antiinflammatory activity in C57BL/6 mouse assessed as inhibition of LPS-induced lung edema at 10 to 20 mg/kg, ip pretreated for 30 mins followed by LPS addition measured after 6 hrs by hematoxylin and eosin staining based microscopic analysis; assay type: functional, organism-based
Mus musculus [12] = assay: Antiinflammatory activity in C57BL/6 mouse assessed as inhibition of LPS-induced TNF-alpha level in bronchoalveolar lavage fluid at 10 to 20 mg/kg, ip pretreated for 30 mins followed by LPS addition measured after 6 hrs; assay type: functional, organism-based
Mus musculus [13] = assay: Antiinflammatory activity in C57BL/6 mouse assessed as inhibition of LPS-induced neutrophil filtration in lung by measuring myeloperoxidase activity at 10 to 20 mg/kg, ip pretreated for 30 mins followed by LPS addition measured after 6 hrs by Giemsa staining-based assay; assay type: functional, organism-based
Peritoneal macrophage [14] = assay: Antiinflammatory activity in mouse primary peritoneal macrophages assessed as inhibition of LPS-induced IL-6 mRNA expression at 5 to 10 uM by RT-qPCR analysis; assay type: functional, cell-based
Peritoneal macrophage [15] = assay: Antiinflammatory activity in mouse primary peritoneal macrophages assessed as inhibition of LPS-induced TNF-alpha production preincubated for 30 mins followed by LPS addition and measured after 24 hrs by ELISA; assay type: functional, cell-based
Mus musculus [16] = assay: Antiinflammatory activity in C57BL/6 mouse assessed as inhibition of LPS-induced IL-6 level in bronchoalveolar lavage fluid at 10 to 20 mg/kg, ip pretreated for 30 mins followed by LPS addition measured after 6 hrs; assay type: functional, organism-based
Peritoneal macrophage [17] = assay: Antiinflammatory activity in mouse primary peritoneal macrophages assessed as inhibition of LPS-induced IL-6 production preincubated for 30 mins followed by LPS addition and measured after 24 hrs by ELISA; assay type: functional, cell-based
Mus musculus [18] = assay: Antiinflammatory activity in C57BL/6 mouse assessed as inhibition of LPS-induced IL-6 mRNA expression in lungs at 10 to 20 mg/kg, ip by RT-qPCR analysis; assay type: functional, organism-based
Mus musculus [19] = assay: Antiinflammatory activity in C57BL/6 mouse assessed as inhibition of LPS-induced total protein level in bronchoalveolar lavage fluid at 10 to 20 mg/kg, ip pretreated for 30 mins followed by LPS addition measured after 6 hrs; assay type: functional, organism-based
Mus musculus [20] = assay: Antiinflammatory activity in C57BL/6 mouse assessed as inhibition of LPS-induced destruction of alveolar structure at 10 to 20 mg/kg, ip pretreated for 30 mins followed by LPS addition measured after 6 hrs by hematoxylin and eosin staining based microscopic analysis; assay type: functional, organism-based
Peritoneal macrophage [21] = assay: Antiinflammatory activity in mouse primary peritoneal macrophages assessed as inhibition of LPS-induced IL-1beta mRNA expression at 5 to 10 uM by RT-qPCR analysis; assay type: functional, cell-based
Mus musculus [22] = assay: Antiinflammatory activity in C57BL/6 mouse assessed as reduction in lung wet/dry ratio at 10 to 20 mg/kg, ip pretreated for 30 mins followed by LPS addition measured after 6 hrs; assay type: functional, organism-based

Cc1ccc(S(=O)(=O)c2[nH]c3ccccc3c2I)cc1
Activity (Peritoneal macrophage [1]): Non-Toxic | inhibition (Peritoneal macrophage [2]): Active | inhibition (Peritoneal macrophage [3]): Active

Cc1ccc(S(=O)(=O)c2cc3ccc(C)cc3n2C)cc1
Activity (Peritoneal macrophage [1]): Non-Toxic | inhibition (Peritoneal macrophage [2]): Active | inhibition (Peritoneal macrophage [3]): Active

Cn1c(S(=O)(=O)c2ccccc2)cc2ccccc21
Activity (Peritoneal macrophage [1]): Non-Toxic | inhibition (Peritoneal macrophage [2]): Active | inhibition (Peritoneal macrophage [3]): Active

Cn1c(S(=O)(=O)c2ccc(C(F)(F)F)cc2)cc2ccccc21
inhibition (Mus musculus [4]): Active | inhibition (Mus musculus [5]): Active | inhibition (Peritoneal macrophage [6]): Active | inhibition (Mus musculus [7]): Active | Activity (Peritoneal macrophage [1]): Non-Toxic | inhibition (Mus musculus [8]): Active | inhibition (Mus musculus [9]): Active | inhibition (Mus musculus [10]): Active | inhibition at 10 µM (Peritoneal macrophage [2]): 88% | inhibition at 10 µM (Peritoneal macrophage [3]): 82% | inhibition (Mus musculus [11]): Active | inhibition (Mus musculus [12]): Active | inhibition (Mus musculus [13]): Active | inhibition (Peritoneal macrophage [14]): Active | IC50 (Peritoneal macrophage [15]): 8010 nM | inhibition (Peritoneal macrophage [15]): Dose-dependent effect | inhibition (Mus musculus [16]): Active | IC50 (Peritoneal macrophage [17]): 1820 nM | inhibition (Peritoneal macrophage [17]): Dose-dependent effect | inhibition (Mus musculus [18]): Active | inhibition (Mus musculus [19]): Active | inhibition (Mus musculus [20]): Active | inhibition (Peritoneal macrophage [21]): Active | Activity (Mus musculus [22]): Active

Cn1c(S(=O)(=O)c2cccc3ccccc23)cc2ccccc21
Activity (Peritoneal macrophage [1]): Non-Toxic | inhibition (Peritoneal macrophage [2]): Active | inhibition (Peritoneal macrophage [3]): Active

Cc1ccc(S(=O)(=O)c2c(C)c3ccccc3n2C)cc1
Activity (Peritoneal macrophage [1]): Non-Toxic | inhibition (Peritoneal macrophage [2]): Active | inhibition (Peritoneal macrophage [3]): Active

Cc1ccc(S(=O)(=O)c2cc3ccccc3n2C)cc1
Activity (Peritoneal macrophage [1]): Non-Toxic | inhibition at 10 µM (Peritoneal macrophage [2]): 88% | inhibition at 10 µM (Peritoneal macrophage [3]): 82% | IC50 (Peritoneal macrophage [15]): 11900 nM | inhibition (Peritoneal macrophage [15]): Dose-dependent effect | IC50 (Peritoneal macrophage [17]): 2390 nM | inhibition (Peritoneal macrophage [17]): Dose-dependent effect

CCn1c(-c2ccccc2)c(S(=O)(=O)c2ccc(C)cc2)c2ccccc21
Activity (Peritoneal macrophage [1]): Non-Toxic | inhibition (Peritoneal macrophage [2]): Active | inhibition (Peritoneal macrophage [3]): Active

COc1ccc(S(=O)(=O)c2cc3ccccc3n2C)cc1
Activity (Peritoneal macrophage [1]): Non-Toxic | inhibition (Peritoneal macrophage [2]): Active | inhibition (Peritoneal macrophage [3]): Active | IC50 (Peritoneal macrophage [15]): 59400 nM | IC50 (Peritoneal macrophage [17]): 1120 nM

Cc1ccc(S(=O)(=O)c2cc3cc(Br)ccc3n2C)cc1
Activity (Peritoneal macrophage [1]): Non-Toxic | inhibition (Peritoneal macrophage [2]): Active | inhibition (Peritoneal macrophage [3]): Active

Cn1c(S(=O)(=O)c2ccc(C(C)(C)C)cc2)cc2ccccc21
inhibition (Mus musculus [4]): Active | inhibition (Mus musculus [5]): Active | inhibition (Peritoneal macrophage [6]): Active | inhibition (Mus musculus [7]): Active | Activity (Peritoneal macrophage [1]): Non-Toxic | inhibition (Mus musculus [8]): Active | inhibition (Mus musculus [9]): Active | inhibition (Mus musculus [10]): Active | inhibition at 10 µM (Peritoneal macrophage [2]): 88% | inhibition at 10 µM (Peritoneal macrophage [3]): 82% | inhibition (Mus musculus [11]): Active | inhibition (Mus musculus [12]): Active | inhibition (Mus musculus [13]): Active | inhibition (Peritoneal macrophage [14]): Active | IC50 (Peritoneal macrophage [15]): 3080 nM | inhibition (Peritoneal macrophage [15]): Dose-dependent effect | inhibition (Mus musculus [16]): Active | IC50 (Peritoneal macrophage [17]): 1100 nM | inhibition (Peritoneal macrophage [17]): Dose-dependent effect | inhibition (Mus musculus [18]): Active | inhibition (Mus musculus [19]): Active | inhibition (Mus musculus [20]): Active | inhibition (Peritoneal macrophage [21]): Active | Activity (Mus musculus [22]): Active

CCCCn1c(S(=O)(=O)c2ccc(C)cc2)cc2ccccc21
Activity (Peritoneal macrophage [1]): Non-Toxic | inhibition (Peritoneal macrophage [2]): Active | inhibition (Peritoneal macrophage [3]): Active

Cn1c(S(C)(=O)=O)cc2ccccc21
Activity (Peritoneal macrophage [1]): Non-Toxic | inhibition (Peritoneal macrophage [2]): Active | inhibition (Peritoneal macrophage [3]): Active

Cc1ccc(S(=O)(=O)c2cc3c(Cl)cccc3n2C)cc1
Activity (Peritoneal macrophage [1]): Non-Toxic | inhibition (Peritoneal macrophage [2]): Active | inhibition (Peritoneal macrophage [3]): Active

COc1ccc(S(=O)(=O)c2[nH]c3cc(C)ccc3c2I)cc1
Activity (Peritoneal macrophage [1]): Non-Toxic | inhibition (Peritoneal macrophage [2]): Active | inhibition (Peritoneal macrophage [3]): Active

Cc1c(S(=O)(=O)c2ccc(C(C)(C)C)cc2)n(C)c2ccccc12
Activity (Peritoneal macrophage [1]): Non-Toxic | inhibition (Peritoneal macrophage [2]): Active | inhibition (Peritoneal macrophage [3]): Active

Cn1c(S(=O)(=O)c2cccs2)cc2ccccc21
Activity (Peritoneal macrophage [1]): Non-Toxic | inhibition (Peritoneal macrophage [2]): Active | inhibition (Peritoneal macrophage [3]): Active

Cn1c(S(=O)(=O)c2ccc(F)cc2)cc2ccccc21
Activity (Peritoneal macrophage [1]): Non-Toxic | inhibition (Peritoneal macrophage [2]): Active | inhibition (Peritoneal macrophage [3]): Active

Cc1ccc(S(=O)(=O)c2c(C)n(C)c3ccccc23)cc1
Activity (Peritoneal macrophage [1]): Non-Toxic | inhibition (Peritoneal macrophage [2]): Active | inhibition (Peritoneal macrophage [3]): Active

COc1ccc2c(c1)cc(S(=O)(=O)c1ccc(C(C)(C)C)cc1)n2C
Activity (Peritoneal macrophage [1]): Non-Toxic | inhibition (Peritoneal macrophage [2]): Active | inhibition (Peritoneal macrophage [3]): Active

Cc1ccc(S(=O)(=O)c2cc3cc([N+](=O)[O-])ccc3n2C)cc1
Activity (Peritoneal macrophage [1]): Non-Toxic | inhibition (Peritoneal macrophage [2]): Active | inhibition (Peritoneal macrophage [3]): Active

Cc1ccc(S(=O)(=O)c2cc3c(Cl)cccc3[nH]2)cc1
Activity (Peritoneal macrophage [1]): Non-Toxic | inhibition (Peritoneal macrophage [2]): Active | inhibition (Peritoneal macrophage [3]): Active

COc1ccc2c(c1)c(CC(=O)O)c(C)n2C(=O)c1ccc(Cl)cc1 [INDOMETHACIN]
Activity (Peritoneal macrophage [1]): Non-Toxic | inhibition (Peritoneal macrophage [2]): Active | inhibition (Peritoneal macrophage [3]): Active

Cc1ccc2cc(S(=O)(=O)c3cccc4ccccc34)[nH]c2c1
Activity (Peritoneal macrophage [1]): Non-Toxic | inhibition (Peritoneal macrophage [2]): Active | inhibition (Peritoneal macrophage [3]): Active

COc1ccc2c(c1)cc(S(=O)(=O)c1ccc(C(F)(F)F)cc1)n2C
Activity (Peritoneal macrophage [1]): Non-Toxic | inhibition (Peritoneal macrophage [2]): Active | inhibition (Peritoneal macrophage [3]): Active

Cc1ccc(S(=O)(=O)c2[nH]c3cc(C)ccc3c2I)cc1
Activity (Peritoneal macrophage [1]): Non-Toxic | inhibition (Peritoneal macrophage [2]): Active | inhibition (Peritoneal macrophage [3]): Active

Cc1c(S(=O)(=O)c2ccc(C(F)(F)F)cc2)n(C)c2ccccc12
Activity (Peritoneal macrophage [1]): Non-Toxic | inhibition (Peritoneal macrophage [2]): Active | inhibition (Peritoneal macrophage [3]): Active

Cn1c(S(=O)(=O)c2ccc(Cl)cc2)cc2ccccc21
Activity (Peritoneal macrophage [1]): Non-Toxic | inhibition (Peritoneal macrophage [2]): Active | inhibition (Peritoneal macrophage [3]): Active

COc1ccc2c(c1)cc(S(=O)(=O)c1ccc(C)cc1)n2C
Activity (Peritoneal macrophage [1]): Non-Toxic | inhibition (Peritoneal macrophage [2]): Active | inhibition (Peritoneal macrophage [3]): Active

Cc1ccc(S(=O)(=O)c2cc3ccc(F)cc3n2C)cc1
Activity (Peritoneal macrophage [1]): Non-Toxic | inhibition (Peritoneal macrophage [2]): Active | inhibition (Peritoneal macrophage [3]): Active

Cc1ccccc1S(=O)(=O)c1cc2ccccc2n1C
Activity (Peritoneal macrophage [1]): Non-Toxic | inhibition (Peritoneal macrophage [2]): Active | inhibition (Peritoneal macrophage [3]): Active

Cn1c(S(=O)(=O)c2ccc(-c3ccccc3)cc2)cc2ccccc21
Activity (Peritoneal macrophage [1]): Non-Toxic | inhibition (Peritoneal macrophage [2]): Active | inhibition (Peritoneal macrophage [3]): Active
